Earlier results in US10539496B2, “Instrument and method for optical particle sensing” (Invitrox, Inc., priority 2011, dated 2020).

System: platelets
Conditions: platelet inhibition in arterial thrombophilic diseases; share of drug-treated patients

| SMILES | treated patients who do not respond to treatment |
| --- | --- |
| CC(=O)Oc1ccccc1C(=O)O [ASA, Aspirin] | Approximately 25% |
| COC(=O)[C@H](c1ccccc1Cl)N1CCc2sccc2C1 [Plavix, clopidogrel bisulfate] | ~29% |
